According to patent US6395740B1, “Calcitonin mimetics” (ZymoGenetics, Inc., priority 1997, dated 2002):
≈ marks a conversion by molar mass, not a printed value.

Legend:
[1] = system: PTH-induced bone resorption in mouse calvariae; assay: Calvarial assay: inhibition of PTH-induced bone resorption (calcium release); type: cell-based; settings: 1 nM PTH 1-34, 72 hours, read-out: Release of PTH Induced Ca++ IC50
Method: Calvaria from 4-day old neonatal CD-1 mice (pregnant mice received from Charles River Laboratories, Wilmington, Mass.) were trimmed with fine-tipped scissors to leave the parietal regions, including the sagittal suture. These trimmed bones were placed singly per well into 6-well cell culture cluster plates (Costar, Pleasanton, Calif.) with 1 mL/well of growth medium (DMEM, BioWhittaker, Walkersville, Md.) with 4.5 g/L glucose, 0.29 mg/mL L-glutamine, 1 mM sodium pyruvate, 15% heat-inactivated horse serum, and antibiotics (penicillin-G 50 μg/mL, streptomycin 50 μg/mL, and neomycin 100 μg/mL), and rocked gently (RedRocker™, model PR50-115V, Hoefer, San Francisco, Calif.) at 37° C. in a 5% CO2 humidified incubator for 24 hours preincubation.
Following preincubation, medium was removed and replaced with 1.5 mL/well of growth medium containing 1 nM parathyroid hormone (PTH) 1-34 (Sigma) to stimulate bone resorption. For evaluation of the ability of calcitonin mimetics to inhibit PTH induced bone resorption, mimetic compounds in DMSO were added to the growth medium at concentrations ranging from 1-400 μg/mL (final assay concentration of DMSO less than or equal to […]). In each exierimerec human calcitonin (0.02-20 nM, 0.2-2 nM preferred) was added to PTH treated bones as a positive control. […] All control wells contained a final assay concentration of DMSO equal to that present in calcitonin mimetic treated wells.
Five bones were included in each sample group. Bones were incubated for 72 hours following PTH addition to allow resorption of bone to occur. Observations were made of the general appearance, healthiness and number of cells that migrate from the calvaria during the incubation as a possible indication of possible toxicity. Calvaria to be examined histologically were transferred to glass scintillation vials containing 10 mL of 10% neutral buffered formalin. The medium was removed from the wells, and total calcium measurements were made using a Nova 7/7+7 Electrolyte Analyzer (Nova Biomedical, Waltham, Mass.) according to the manufacturer's specifications. Induction of bone resorption by PTH is seen as an increase in the concentration of calcium in the growth medium due to degradation of the bone matrix.

[2] = target: T1, human calcitonin receptor (Homo sapiens, UniProt P30988); assay: CRE-luciferase assay for calcitonin mimetic activity; type: cell-based
T1 construct: expressed in transfected cells; host or cells: BHK (baby hamster kidney) cells, line Hollex-2 (Hollex 1 in the general description)
T1 sequence (P30988 25-474): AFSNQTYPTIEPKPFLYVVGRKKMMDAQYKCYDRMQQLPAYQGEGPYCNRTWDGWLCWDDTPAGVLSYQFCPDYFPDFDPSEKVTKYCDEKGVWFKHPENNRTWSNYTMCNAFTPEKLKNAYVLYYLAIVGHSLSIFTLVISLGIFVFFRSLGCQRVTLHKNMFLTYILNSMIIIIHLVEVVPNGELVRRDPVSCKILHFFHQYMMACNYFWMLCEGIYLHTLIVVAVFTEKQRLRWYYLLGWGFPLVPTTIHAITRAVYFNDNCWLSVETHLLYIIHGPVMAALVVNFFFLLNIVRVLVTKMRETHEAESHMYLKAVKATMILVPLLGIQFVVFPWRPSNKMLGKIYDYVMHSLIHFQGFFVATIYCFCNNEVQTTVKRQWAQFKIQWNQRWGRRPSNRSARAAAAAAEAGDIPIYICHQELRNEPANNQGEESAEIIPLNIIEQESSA
Excerpt: An alternative assay system (described in WO96/31536 which is incorporated herein in its entirety) involves selection of substances that are able to induce expression of a cyclic AMP response element (CRE)-luciferase reporter gene, as a consequence of elevated cAMP levels, in cells expressing a calcitonin receptor, but not in cells lacking calcitonin receptor expression. Such cells could include, for example, Boris/KS10-3 (expressing hamster calcitonin receptor and a CRE-luciferase reporter gene in baby hamster kidney cells (BHK 570 cells)) or Hollex 1 (expressing human calcitonin receptor and a CRE-luciferase reporter gene in BHK cells, as described in WO96/31536) or KZ10-20-48/pLJ6-4-25, which expresses the human glucagon receptor and a CRE-luciferase reporter gene in BHK cells. The human glucagon receptor is another member of the G-protein-coupled receptor family that transduces signal through adenylate cyclase-mediated elevation of cAMP.
This CRE-luciferase assay measures the end result of a multi-step signal transduction pathway triggered when a calcitonin mimetic stimulates the G-coupled calcitonin receptor. The complexity of this pathway provides multiple mechanisms for induction of luciferase transcription at points that are downstream of the calcitonin receptor, and therefore may not be calcitonin receptor-specific (e.g., forskolin's direct activation of adenylate cyclase). Any response triggered by non-specific inducers is eliminated by counter screening using the calcitonin receptor-negative cell lines described above.
Receptor-positive and -negative cell lines were maintained by serial passage in growth medium (DMEM supplemented with 10% heat-inactivated fetal calf serum (HI-FCS), 2 mM L-glutamine, 1 mM sodium pyruvate, 250 nM MTX, and 1 mg/mL G418). On the day prior to assay, cells were trypsinized, adjusted to 2×10^5 cells/mL in growth medium, plated in opaque white Dynatech Microlite microtiter tissue culture plates at 100 μL/well (2×10^4 cells), and grown overnight to confluence (37° C., 5% CO2 atmosphere)
Test substances were prepared in DMSO at 100 times the final desired assay concentration. Induction was initiated by adding 100 μL/well test substance diluted 1:100 or 1:1000 (only first round screening extracts were diluted 1:100) in assay medium (DMEM supplemented with 10% HI-FCS, 2 mM L-glutamine, 1 mM sodium pyruvate and 20 mM Hepes, pH 7.25). Controls were included on each plate: untreated wells (basal), […] forskolin, and 100 nM human calcitonin. For test substances prepared in DMSO, an equal concentration of DMSO was included in control wells (not to exceed a final assay concentration of 2% DMSO, with a preferred maximum of 1%). Plates were incubated for 3 to 8 hours (4 hours preferred) at 37° C. in an atmosphere of 5% CO2.
Following induction, luciferase activity was measured using a Promega luciferase assay kit (E1500) according to the assay kit protocol. Briefly, assay medium was removed and cells were washed once with phosphate buffered saline (PBS). After the wash, 25 μL of lysis buffer was added to each well, and the plates were incubated for 15 minutes at room temperature. Fifty microliters of Luciferase Assay Substrate (Promega, Corp.) was added to each well and the plates were transferred to a Labsystems Lumiscan microtiter luminometer. The amount of luminescence (relative light units, RLU) was determined by “Fastscan” following a 0.1 second/well integration of signal. Basal (uninduced) luciferase signal was subtracted from all measurements, and the luciferase signal induced by test samples was expressed as a percentage of the signal in the calcitonin and forskolin controls. […]

## COc1cc(CN2CCN(C(=O)Nc3cccc(C(F)(F)F)c3)CC2)ccc1O [Compound 850-0231]
[1]
  IC50: 25 to 50 µg/mL (≈ 61.1 to 122 µM)
[2]
  EC50: 61.1 to 122 µM
